Patent US7662832B2, “Pyrrolo[2,3-c]pyridine derivatives and processes for the preparation thereof” (priority 2004, dated 2010)
Structures can show the parent of a compound that is named as a salt.

The compounds below were run against Proton Pump (H^+/K^+-ATPase) (Sus scrofa, UniProt P19156) (assay: Inhibitory effects on proton pump (H^+/K^+-ATPase) activity). Details: hog gastric vesicles; K^+ stimulated H^+/K^+-ATPase activity; 30 minutes at 37° C.
Assay type: biochemical

Chain of Proton Pump (H^+/K^+-ATPase) (P19156 2-1034 limits assumed): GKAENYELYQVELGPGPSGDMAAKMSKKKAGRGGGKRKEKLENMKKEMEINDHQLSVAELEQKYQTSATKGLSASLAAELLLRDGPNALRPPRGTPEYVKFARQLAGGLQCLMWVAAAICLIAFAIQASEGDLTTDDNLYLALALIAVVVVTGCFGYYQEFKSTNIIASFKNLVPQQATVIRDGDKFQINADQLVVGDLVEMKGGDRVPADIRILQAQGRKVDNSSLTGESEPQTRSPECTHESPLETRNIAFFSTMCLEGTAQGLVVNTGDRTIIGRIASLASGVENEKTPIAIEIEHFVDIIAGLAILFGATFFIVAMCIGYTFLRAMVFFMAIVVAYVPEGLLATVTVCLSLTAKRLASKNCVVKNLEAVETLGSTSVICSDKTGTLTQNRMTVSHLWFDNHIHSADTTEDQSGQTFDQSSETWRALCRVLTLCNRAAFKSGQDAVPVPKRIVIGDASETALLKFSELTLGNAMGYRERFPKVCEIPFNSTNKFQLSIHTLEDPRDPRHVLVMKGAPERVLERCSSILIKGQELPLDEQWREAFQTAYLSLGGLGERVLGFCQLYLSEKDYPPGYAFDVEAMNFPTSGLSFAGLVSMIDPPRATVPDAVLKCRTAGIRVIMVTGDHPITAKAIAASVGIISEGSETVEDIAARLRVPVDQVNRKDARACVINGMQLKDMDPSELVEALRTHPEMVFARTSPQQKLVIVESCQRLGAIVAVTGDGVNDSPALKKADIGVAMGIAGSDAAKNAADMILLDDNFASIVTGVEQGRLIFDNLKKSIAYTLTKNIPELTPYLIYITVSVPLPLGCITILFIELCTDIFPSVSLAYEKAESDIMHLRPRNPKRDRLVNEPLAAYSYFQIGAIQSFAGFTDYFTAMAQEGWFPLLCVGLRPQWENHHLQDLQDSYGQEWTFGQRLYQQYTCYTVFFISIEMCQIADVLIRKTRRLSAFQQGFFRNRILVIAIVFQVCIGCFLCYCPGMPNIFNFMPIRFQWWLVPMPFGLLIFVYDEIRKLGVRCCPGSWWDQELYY
Chain of Proton Pump (H^+/K^+-ATPase) (P18434 whole entry partner): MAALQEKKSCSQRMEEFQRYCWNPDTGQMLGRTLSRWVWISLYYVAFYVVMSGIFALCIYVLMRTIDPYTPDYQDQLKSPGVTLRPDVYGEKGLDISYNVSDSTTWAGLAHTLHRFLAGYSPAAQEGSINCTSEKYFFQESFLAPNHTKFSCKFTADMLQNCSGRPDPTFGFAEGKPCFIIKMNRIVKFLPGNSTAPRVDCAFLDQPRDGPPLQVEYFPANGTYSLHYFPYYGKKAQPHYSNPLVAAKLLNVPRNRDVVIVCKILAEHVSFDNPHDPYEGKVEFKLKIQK

Q: Which IC50 does the source give for `Cc1ccc(-c2nccc3c(C)c(C)n(CC4CCC4)c23)cc1` [Example 289, 1-cyclobutylmethyl-2,3-dimethyl-7-(p-tolyl)-1H-pyrrolo[2,3-c]pyridine hydrochloride] here?
A: 1340 nM

Q: `Cc1c(C)n(Cc2cccc(Cl)c2)c2c(N3CCc4ccccc4C3)nc(C(=O)N3CCN(C)CC3)cc12` [Example 836, [1-(3-chlorobenzyl)-7-(3,4-dihydro-1H-isoquinolin-2-yl)-2,3-dimethyl-1H-pyrrolo[2,3-c]pyridin-5-yl]-(4-methylpiperazin-1-yl)-methanone hydrochloride] was tested. Which IC50 did it give?
A: 129 nM

Q: How did the IC50 turn out when `C=Cc1ccc(-c2nccc3c(C)c(C)n(Cc4ccccc4)c23)cc1` [Example 246, 1-benzyl-2,3-dimethyl-7-(4-vinylphenyl)-1H-pyrrolo[2,3-c]pyridine hydrochloride] was run?
A: 110 nM

Q: With `Cc1c(C)n(Cc2ccccc2F)c2c(CN(C)c3ccc(F)cc3)nccc12` [Example 115, N-[1-(2-fluorobenzyl)-2,3-dimethyl-1H-pyrrolo[2,3-c]pyridin-7-ylmethyl]-N-(4-fluorophenyl)-methylamine hydrochloride] as the compound, how does the IC50 read?
A: 142 nM

Q: Which IC50 does the source give for `C#CCn1c(C)c(C)c2ccnc(-c3ccc(OC)cc3)c21` [Example 354, 7-(4-methoxyphenyl)-2,3-dimethyl-1-(prop-2-ynyl)-1H-pyrrolo[2,3-c]pyridine hydrochloride] here?
A: 150 nM

Q: For `C=Cc1ccc(-c2nccc3c(C)c(C)n(Cc4cccc(OC)c4)c23)cc1` [Example 253, 2,3-dimethyl-1-(3-methoxybenzyl)-7-(4-vinylphenyl)-1H-pyrrolo[2,3-c]pyridine hydrochloride], which IC50 is on record?
A: 170 nM

Q: Which IC50 does the source give for `Cc1c(C)n(CC2CC2)c2c(CCc3ccccc3)nccc12` [Example 453, 1-cyclopropylmethyl-2,3-dimethyl-7-phenethyl-1H-pyrrolo[2,3-c]pyridine hydrochloride] here?
A: 340 nM

Q: How did the IC50 turn out when `Cc1c(C)n(Cc2ccc(F)cc2)c2c(N3CCc4ccccc4C3)nc(C(=O)N3CCCCC3)cc12` [Example 797, [7-(3,4-dihydro-1H-isoquinolin-2-yl)-1-(4-fluorobenzyl)-2,3-dimethyl-1H-pyrrolo[2,3-c]pyridin-5-yl]-(piperidin-1-yl)-methanone hydrochloride] was run?
A: 287 nM

Q: With `Cc1c(C)n(Cc2ccccc2F)c2c(N(C)Cc3ccc(F)cc3)nccc12` [Example 147, 1-(2-fluorobenzyl)-7-[N-(4-fluorobenzyl)-N-methyl]amino-2,3-dimethyl-1H-pyrrolo[2,3-c]-pyridine hydrochloride] as the compound, how does the IC50 read?
A: 200 nM

Q: For `Cc1c(CO)c2ccnc(-c3ccc4ccccc4c3)c2n1Cc1cccc(F)c1` [Example 411, 1-(3-fluorobenzyl)-3-hydroxymethyl-2-methyl-7-(naphthalen-2-yl)-1H-pyrrolo[2,3-c]pyridine hydrochloride], which IC50 is on record?
A: 284 nM

Q: Which IC50 does the source give for `CC=CCn1c(C)c(C)c2ccnc(NCc3ccccc3)c21` [Example 183, 7-benzylamino-1-(but-2-enyl)-2,3-dimethyl-1H-pyrrolo[2,3-c]pyridine hydrochloride] here?
A: 220 nM

Q: Which IC50 does the source give for `Cc1ccc(Cn2c(C)c(C)c3ccnc(N(C)Cc4ccc(F)cc4)c32)cc1` [Example 152, 7-[N-(4-fluorobenzyl)-N-methyl]amino-2,3-dimethyl-1-(4-methylbenzyl)-1H-pyrrolo[2,3-c]pyridine hydrochloride] here?
A: 170 nM

Q: For `Cc1c(C)n(CC(C)C)c2c(NCc3ccc(Cl)cc3)nccc12` [Example 209, 7-(4-chlorobenzylamino)-1-isobutyl-2,3-dimethyl-1H-pyrrolo[2,3-c]pyridine hydrochloride], which IC50 is on record?
A: 66 nM

Q: How did the IC50 turn out when `COc1cccc(Cn2c(C)c(C)c3ccnc(-c4ccc(SC)cc4)c32)c1` [Example 266, 1-(3-methoxybenzyl)-2,3-dimethyl-7-(4-methylsulfanylphenyl)-1H-pyrrolo[2,3-c]pyridine hydrochloride] was run?
A: 140 nM

Q: `COCCn1c(C)c(C)c2ccnc(N3CCc4ccccc4C3C)c21` (centres unmarked) [Example 555, 2-[1-(2-methoxyethyl)-2,3-dimethyl-1H-pyrrolo[2,3-c]pyridin-7-yl]-1-methyl-1,2,3,4-tetrahydroisoquinoline hydrochloride] was tested. Which IC50 did it give?
A: 230 nM

Q: `COc1cccc(Cn2c(C)c(C)c3cc(C(=O)N4CCN(C)CC4)nc(N4CCc5ccccc5C4)c32)c1` [Example 783, [7-(3,4-dihydro-1H-isoquinolin-2-yl)-1-(3-methoxybenzyl)-2,3-dimethyl-1H-pyrrolo[2,3-c]pyridin-5-yl]-(4-methylpiperazin-1-yl)-methanone hydrochloride] was tested. Which IC50 did it give?
A: 3 nM

Q: Which IC50 does the source give for `C=CCn1c(C)c(C)c2cc(C(=O)N3CCNCC3)nc(N3CCc4ccccc4C3)c21` [Example 811, [1-allyl-7-(3,4-dihydro-1H-isoquinolin-2-yl)-2,3-dimethyl-1H-pyrrolo[2,3-c]pyridin-5-yl]-(piperazin-1-yl)-methanone hydrochloride] here?
A: 3 nM

Q: With `Cc1[nH]c2c(N3CCc4cc(F)ccc4C3C)nccc2c1C` (centres unmarked) [Example 561, 6-fluoro-2-(2,3-dimethyl-1H-pyrrolo[2,3-c]pyridin-7-yl)-1-methyl-1,2,3,4-tetrahydroisoquinoline hydrochloride] as the compound, how does the IC50 read?
A: 65 nM

Q: With `Cc1c(C)n(Cc2ccccc2)c2c(N3CCc4ccccc4C3)nc(C(=O)O)cc12` [Example 744, 1-benzyl-7-(3,4-dihydro-1H-isoquinolin-2-yl)-2,3-dimethyl-1H-pyrrolo[2,3-c]pyridin-5-carboxylate sodium] as the compound, how does the IC50 read?
A: 130 nM

Q: For `C=CCn1c(C)c(C)c2ccnc(-c3ccc(C)cc3)c21` [Example 277, 1-allyl-2,3-dimethyl-7-(p-tolyl)-1H-pyrrolo[2,3-c]pyridine hydrochloride], which IC50 is on record?
A: 129 nM

Q: With `C=CCn1c(C)c(C)c2cc(CN3CCN(C)CC3)nc(N3CCc4ccccc4C3)c21` [Example 879, 2-[1-allyl-2,3-dimethyl-5-(4-methylpiperazin-1-ylmethyl)-1H-pyrrolo[2,3-c]pyridin-7-yl]-1,2,3,4-tetrahydroisoquinoline hydrochloride] as the compound, how does the IC50 read?
A: 50 nM

Q: How did the IC50 turn out when `Cc1[nH]c2c(N3CCc4ccccc4C3)nc(C=O)cc2c1C` [Example 862, 7-(3,4-dihydro-1H-isoquinolin-2-yl)-2,3-dimethyl-1H-pyrrolo[2,3-c]pyridin-5-carbaldehyde] was run?
A: 403 nM

Q: `Cc1c(C)n(Cc2cccc(Cl)c2)c2c(N3CCc4ccccc4C3)nc(-c3nnnn3C)cc12` [Example 853, 2-[1-(3-chlorobenzyl)-2,3-dimethyl-5-(1-methyl-1H-tetrazol-5-yl)-1H-pyrrolo[2,3-c]pyridin-7-yl]-1,2,3,4-tetrahydroisoquinoline] was tested. Which IC50 did it give?
A: 36 nM

Q: For `CCN1CCN(C(=O)c2cc3c(C)c(C)n(Cc4ccccc4)c3c(NCc3ccc(F)cc3)n2)CC1` [Example 907, [1-benzyl-7-(4-fluorobenzylamino)-2,3-dimethyl-1H-pyrrolo[2,3-c]pyridin-5-yl]-(4-ethylpiperazin-1-yl)-methanone hydrochloride], which IC50 is on record?
A: 32 nM

Q: `Cc1c(C)n(Cc2ccc(Cl)cc2)c2c(CCc3ccccc3)nccc12` [Example 446, 1-(4-chlorobenzyl)-2,3-dimethyl-7-phenethyl-1H-pyrrolo[2,3-c]pyridine hydrochloride] was tested. Which IC50 did it give?
A: 390 nM

Q: For `CCn1c(C)c(C)c2cc(C(=O)N3CCC(O)CC3)nc(N3CCc4ccccc4C3)c21` [Example 806, [7-(3,4-dihydro-1H-isoquinolin-2-yl)-1-ethyl-2,3-dimethyl-1H-pyrrolo[2,3-c]pyridin-5-yl]-(4-hydroxypiperidin-1-yl)-methanone hydrochloride], which IC50 is on record?
A: 13 nM
